Measured values taken from patent publication USRE45810E1, “Process for producing spherical base granule comprising easily water-soluble drug” (ASAHI KASEI CHEMICALS CORPORATION, priority 2006, dated 2015).
Read-outs that look alike come from different tables or passages of the source.

How the values were obtained:
[1] = Tackiness of dried film of layering liquid, finger test by panel of three experts; type: physicochemical
Protocol: A layering liquid (3 g) is poured in a polypropylene Petri dish having a diameter of 8 cm and dried at 40° C. in an air-circulation-free dryer (“FC610”, product of Advantec Co., Ltd.). Within three seconds after taking out the dried product from the dryer, tackiness of the dried film when an index finger is pressed against the film for two seconds and then released therefrom is evaluated by a panel of three experts. The tackiness is rated as “1” when no tackiness is observed, “2” when a little tackiness is observed, “3” when tackiness is observed, “4” when strong tackiness is observed, and “5” when very strong tackiness is observed. The tackiness of the dried film is evaluated by the average of them.
It is known empirically that agglomeration occurs during layering when the tackiness is “3” or higher so that the layering rate must be set low to prevent it. Layering cannot be performed in practice when the tackiness is “5”.

[2] = in 1 cm^3 of water of 20° C., cited from earlier work

O=C(CO)[C@@H](O)[C@H](O)[C@H](O)CO [Fructose, fructose]
Tackiness of layering liquid (in words) [1]: do not show a tackiness reducing effect
Solubility [2]: 6 g
Solubility ([2]; listed as fructose): 0.6 g

OC[C@@H](O)[C@@H](O)[C@H](O)[C@H](O)CO [D-mannitol]
Solubility [2]: 0.18 g

OC[C@@H](O)[C@@H](O)[C@H](O)[C@@H](O)CO [Sorbitol, sorbitol]
Tackiness of layering liquid (in words) [1]: do not show a tackiness reducing effect
Solubility [2]: 0.9 g
